Results as given in US20060210479A1 (Dow Global Technologies Inc., priority 2004, published 2006).
“Also recorded” adds a separate entry of the source. Marks after values point to notes of the source that are not given here.

Experiments:
[1] = system: Caco-2 cells; assay: Permeability: detection of chelate compounds in the cytoplasm; type: cell-based, human; parameters: key to Permeability Caco-2: Absence = 0; presence = +; details: for Permeability Caco-2: 50 μM, 90 minutes at 37 °C, detection in the cytoplasm; for detection within the cytoplasm: carcinoma cell line Caco-2
Experimental: (§1) Cell cultures. LNCaP cell line is a human prostate carcinoma. Cells were grown in RPMI 1640 Medium supplemented 10% FBS, 2 mM L-glutamine, glucose (2 g/L) augmented with gentamicin (50 μg/mL), penicillin/streptomycin (100 IU/mL/100 μg/mL) and amphotericin B (2.5 μg/mL). Caco-2 cell line is a human colorectal carcinoma. These cells were grown in Eagle's Minimum Essential Medium supplemented with 20% FBS, Earle's BSS, 2 mM L-glutamine, 1.0 mM sodium pyruvate, 0.1 mM nonessential amino acids augmented with gentamicin (50 μg/mL), penicillin/streptomycin (100 IU/mL/100 μg/mL), and amphotericin B (2.5 μg/mL). The human kidney transformed cells HEK293 were grown in Eagle's Minimum Essential Medium (EMEM) supplemented with 10% (v/v) heat-inactivated fetal bovine serum, sodium pyruvate, nonessential amino acids and antibiotics in a humidified 5% CO2 atmosphere at 37° C. Medium and supplements were purchased from Gibco BRL (Grand Island, N.Y.) and all cell lines were obtained from ATCC.
(§2) Detection of chelant compounds for the determination of permeability. Cells were grown to confluence in T-150 flasks (about 2×10^7 cells). Before treating with chelate compounds, cells were rinsed twice with warm 10 mM HEPES (Gibco BRL, Grand Island N.Y.), removed from the flask, and transferred to a 50-mL conical tube and centrifuged (400×g) for 5 minutes. The resulting cells were treated with individual chelate compounds with 50 μM of chelate compounds in 10 mM HEPES, pH 7.4, 5 mM KCl, 150 mM NaCl, 0.7 mM NaH2PO4 for 90 minutes at 37° C. After treatment, cells were pelleted by centrifugation, the cytoplasm was extracted by Mem-PER Eukaryotic Membrane Protein Extraction Reagent Kit as described by manufacturers (Pierce biotechnology, Rockford, Ill.) and the resulting solution was analyzed by a combination of HPLC and mass spectrometry (Table 8).

[2] = system: HEK293 cells; assay: as above; type: cell-based, human; parameters: key: Absence = 0; presence = +; details: 50 μM, 90 minutes at 37 °C
Experimental: as §1, §2

[3] = molecular target: T1, Keratin 18 (Homo sapiens, UniProt P05783); assay: Elution and identification of target-chelate compound associations; type: binding
T1 construct: Caco-2 and LNCaP cell lines were lysed by sonication or by lysis in hypotonic buffer; endogenous in cells; host or cells: Caco-2 and LNCaP
T1 sequence (P05783 2-430 limits assumed): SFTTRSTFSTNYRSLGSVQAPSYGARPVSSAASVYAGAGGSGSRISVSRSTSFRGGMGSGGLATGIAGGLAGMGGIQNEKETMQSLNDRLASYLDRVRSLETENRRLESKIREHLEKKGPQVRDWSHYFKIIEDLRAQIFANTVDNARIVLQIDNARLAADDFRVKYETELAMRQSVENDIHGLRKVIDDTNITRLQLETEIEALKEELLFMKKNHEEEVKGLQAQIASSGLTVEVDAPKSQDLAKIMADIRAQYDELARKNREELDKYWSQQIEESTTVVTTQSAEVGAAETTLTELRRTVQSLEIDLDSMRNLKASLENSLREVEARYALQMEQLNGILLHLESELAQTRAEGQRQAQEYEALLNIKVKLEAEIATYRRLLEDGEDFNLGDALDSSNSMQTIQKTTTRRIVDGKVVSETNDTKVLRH
T1 sequence (P05787 1-483 partner): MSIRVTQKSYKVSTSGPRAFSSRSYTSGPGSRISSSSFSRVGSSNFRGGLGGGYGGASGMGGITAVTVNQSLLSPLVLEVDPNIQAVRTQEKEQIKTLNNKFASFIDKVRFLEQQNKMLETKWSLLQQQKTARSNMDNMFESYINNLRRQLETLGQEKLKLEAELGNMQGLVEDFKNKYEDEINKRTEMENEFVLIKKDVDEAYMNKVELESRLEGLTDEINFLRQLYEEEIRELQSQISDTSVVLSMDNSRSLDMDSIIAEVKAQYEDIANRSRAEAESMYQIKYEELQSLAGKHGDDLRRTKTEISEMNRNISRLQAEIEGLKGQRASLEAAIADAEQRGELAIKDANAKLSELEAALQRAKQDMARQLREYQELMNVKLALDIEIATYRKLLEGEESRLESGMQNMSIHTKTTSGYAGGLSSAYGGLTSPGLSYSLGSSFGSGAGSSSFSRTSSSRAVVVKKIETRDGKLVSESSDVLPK
Experimental: (§3) Identification of novel target-chelate compound associations—Caco-2 and LNCaP cell lines were lysed by sonication or by lysis in hypotonic buffer. Soluble proteins were enriched and captured on an affinity support column. […] Proteins were eluted by adding different chelate compounds that compete for the bound ligand or change the steric structure of a given protein(s). Eluted samples were analyzed by high resolution SDS-PAGE. The protein-chelate compound associations were further analyzed to identify the different proteins by excising the corresponding protein bands from the gel, which was then treated with trypsin and purified. […]

[4] = molecular target: T2, Cytokeratin 8 (Homo sapiens, UniProt P05787); assay: as above; type: binding
T2 construct: Caco-2 and LNCaP cell lines were lysed by sonication or by lysis in hypotonic buffer; endogenous in cells; host or cells: Caco-2 and LNCaP
T2 sequence (P05787 1-483): T1 sequence (P05787 1-483 partner)
T2 sequence (P05783 2-430 partner limits assumed): T1 sequence (P05783 2-430 limits assumed)
Experimental: as §3

[5] = Solubility of chelate compounds; details: <5% methanol, ethanol, or DMSO
[6] = system: LNCaP cells; assay: Permeability: detection of chelate compounds in the cytoplasm; type: cell-based, human; parameters: key to Permeability LNCaP: Absence = 0; presence = +; details: for Permeability LNCaP: 50 μM, 90 minutes at 37 °C, detection in the cytoplasm; for detection within the cytoplasm: carcinoma cell line LNCaP
Experimental: as §1, §2

[7] = system: Caco-2 cells; assay: Adsorption of chelate compounds to cells (HPLC and mass spectrometry); type: cell-based, human; details: for Adsorption Caco-2: 50 µM chelate compound, 0, 30 and 90 minutes at 37 °C, % adsorbed relative to time zero
Description: (§4) As a prerequisite for the understanding of the functional attributes of Tb-PCTMB and Eu-QCTME for diagnostics and therapeutic purposes, and for other uses, it is useful to synthesize a series of chelate compounds that contain structural elements of both PCTMB and QCTME and test these compounds for adsorption and permeability to different cell lines. The first approach was to test for adsorption to a normal cell line (HEK293) and to two epithelial cancer cell lines (LNCaP and Caco-2). The second approach, described in this example, involves testing only the compounds that adsorbed in the cancer cell lines and not in the normal cell lines for permeability. Adsorption and permeability of the compounds to epithelial cancer cell lines and a normal cell line was measured through the detection of the compound by HPLC and mass spectrometry.
as §1
(§5) Detection of chelate compounds for the determination of adsorption. Cells were grown to confluence in T-150 flasks (about 2×10^7 cells). Before treating with chelate compounds, cells were rinsed twice with warm 10 mM HEPES (Gibco BRL, Grand Island N.Y.), removed from the flask, and transferred to a 50-mL conical tube and centrifuged (400×g) for 5 minutes. The resulting cells were treated with individual chelate compounds with 50 µM of chelate compounds in 10 mM HEPES, pH 7.4, 5 mM KCl, 150 mM NaCl, 0.7 mM NaH2PO4 for 0, 30, and 90 minutes at 37 ° C. After treatment, cells were pelleted by centrifugation and the resulting solution was analyzed by a combination of HPLC and mass spectrometry.

[8] = system: LNCaP cells; assay: as above; type: cell-based, human; details: for Adsorption LNCaP: 50 µM chelate compound, 0, 30 and 90 minutes at 37 °C, % adsorbed relative to time zero
Description: as §4, §1, §5

[9] = system: HEK293 cells; assay: as above; type: cell-based, human; details: for Adsorption HEK293: 50 µM chelate compound, 0, 30 and 90 minutes at 37 °C, % adsorbed relative to time zero
Description: as §4, §1, §5

[10] = molecular target: T3, Amphiphysin I (Homo sapiens, UniProt P49418); assay: Elution and identification of target-chelate compound associations; type: binding
T3 construct: Caco-2 and LNCaP cell lines were lysed by sonication or by lysis in hypotonic buffer; endogenous in cells; host or cells: Caco-2 and LNCaP
T3 sequence (P49418 1-653 isoform P49418-2): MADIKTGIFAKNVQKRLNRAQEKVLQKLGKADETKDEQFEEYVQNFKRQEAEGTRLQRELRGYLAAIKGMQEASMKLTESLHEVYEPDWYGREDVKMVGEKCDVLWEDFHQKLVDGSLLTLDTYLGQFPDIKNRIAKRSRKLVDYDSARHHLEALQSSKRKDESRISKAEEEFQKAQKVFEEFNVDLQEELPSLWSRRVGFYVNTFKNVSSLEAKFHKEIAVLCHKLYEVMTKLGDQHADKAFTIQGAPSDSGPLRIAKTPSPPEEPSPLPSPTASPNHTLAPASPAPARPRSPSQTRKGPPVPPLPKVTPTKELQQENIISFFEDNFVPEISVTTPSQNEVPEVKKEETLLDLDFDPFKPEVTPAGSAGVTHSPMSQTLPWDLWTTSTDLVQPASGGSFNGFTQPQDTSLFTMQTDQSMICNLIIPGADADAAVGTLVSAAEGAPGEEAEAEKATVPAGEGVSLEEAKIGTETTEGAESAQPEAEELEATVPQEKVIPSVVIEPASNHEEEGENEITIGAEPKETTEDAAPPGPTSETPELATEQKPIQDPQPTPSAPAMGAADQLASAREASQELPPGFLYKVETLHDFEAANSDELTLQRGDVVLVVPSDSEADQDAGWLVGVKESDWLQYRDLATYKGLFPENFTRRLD
Experimental: as §3

[11] = molecular target: T4, BiP (Homo sapiens, UniProt P11021); assay: as above; type: binding
T4 construct: Caco-2 and LNCaP cell lines were lysed by sonication or by lysis in hypotonic buffer; endogenous in cells; host or cells: Caco-2 and LNCaP
T4 sequence (P11021 19-654): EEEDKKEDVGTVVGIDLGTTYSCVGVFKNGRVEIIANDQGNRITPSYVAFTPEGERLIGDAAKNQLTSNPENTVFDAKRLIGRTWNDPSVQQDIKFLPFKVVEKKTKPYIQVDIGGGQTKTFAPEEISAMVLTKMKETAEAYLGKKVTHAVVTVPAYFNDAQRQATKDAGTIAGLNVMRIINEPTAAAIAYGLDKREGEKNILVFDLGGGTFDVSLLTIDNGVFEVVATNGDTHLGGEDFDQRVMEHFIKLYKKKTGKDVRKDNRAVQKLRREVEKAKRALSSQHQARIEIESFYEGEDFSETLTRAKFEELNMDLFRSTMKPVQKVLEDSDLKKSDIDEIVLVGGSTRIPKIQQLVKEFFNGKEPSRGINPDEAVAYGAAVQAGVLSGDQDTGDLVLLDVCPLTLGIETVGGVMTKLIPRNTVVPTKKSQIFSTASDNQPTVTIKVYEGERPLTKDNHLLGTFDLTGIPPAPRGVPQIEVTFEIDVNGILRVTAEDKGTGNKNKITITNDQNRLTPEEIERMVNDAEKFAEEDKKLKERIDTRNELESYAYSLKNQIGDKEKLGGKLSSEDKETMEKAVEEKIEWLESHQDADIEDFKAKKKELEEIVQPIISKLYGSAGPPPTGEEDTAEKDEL
Experimental: as §3

CCCCOP(=O)(O)Cc1cc(CP(=O)(O)OCCCC)cc(CP(=O)(O)OCCCC)c1 [Compound 9, [3,5-Bis-(Butoxy-hydroxy-phosphorylmethyl)-benzyl]-phosphonic acid monobutyl ester]
Permeability Caco-2 [1]: + | detection within the cytoplasm [1]: detected within the cytoplasm | Permeability HEK293 [2]: 0 | binding to keratin 18 (Seq. ID No. 9) [3]: found to bind; also recorded: bind specifically | binding to cytokeratin 8 (Seq. ID No. 10) [4]: found to bind; also recorded: bind specifically | solubility [5]: > 10 mM | Permeability LNCaP [6]: + | detection within the cytoplasm [6]: detected within the cytoplasm | adsorption in carcinoma cell line Caco-2 [7]: adsorbed | Adsorption Caco-2 [7]: ++ (++ = 21-40%) | adsorption in carcinoma cell line LNCaP [8]: adsorbed | Adsorption LNCaP [8]: ++ (++ = 21-40%) | adsorption in normal cells (HEK293) [9]: not adsorbed | Adsorption HEK293 [9]: 0 (0 = 0-10%)

CCCCOP(=O)(O)Cc1ccc2cc(C)ccc2n1 [Compound 3]
Permeability Caco-2 [1]: + | detection within the cytoplasm [1]: detected within the cytoplasm | Permeability HEK293 [2]: 0 | binding to amphiphysin I (Seq. ID No. 7) [10]: found to bind; also recorded: bind specifically | binding to BiP (Seq. ID No. 5) [11]: found to bind; also recorded: bind specifically | solubility [5]: > 10 mM | Permeability LNCaP [6]: + | detection within the cytoplasm [6]: detected within the cytoplasm | adsorption in carcinoma cell line Caco-2 [7]: adsorbed | Adsorption Caco-2 [7]: ++ (++ = 21-40%) | adsorption in carcinoma cell line LNCaP [8]: adsorbed | Adsorption LNCaP [8]: ++++ (++++ = >60%) | adsorption in normal cells (HEK293) [9]: not adsorbed | Adsorption HEK293 [9]: 0 (0 = 0-10%)

CCOP(=O)(O)Cc1cc(CP(=O)(O)OCC)cc(CP(=O)(O)OCC)c1 [Compound 8, [3,5-Bis-(Ethoxy-hydroxy-phosphorylmethyl)-benzyl]-phosphonic acid monoethyl ester]
Permeability Caco-2 [1]: + | detection within the cytoplasm [1]: detected within the cytoplasm | Permeability HEK293 [2]: 0 | binding to keratin 18 (Seq. ID No. 9) [3]: found to bind; also recorded: bind specifically | binding to cytokeratin 8 (Seq. ID No. 10) [4]: found to bind; also recorded: bind specifically | solubility [5]: > 10 mM | Permeability LNCaP [6]: + | detection within the cytoplasm [6]: detected within the cytoplasm | adsorption in carcinoma cell line Caco-2 [7]: adsorbed | Adsorption Caco-2 [7]: +++ (+++ = 41-60%) | adsorption in carcinoma cell line LNCaP [8]: adsorbed | Adsorption LNCaP [8]: +++ (+++ = 41-60%) | adsorption in normal cells (HEK293) [9]: not adsorbed | Adsorption HEK293 [9]: 0 (0 = 0-10%)

CCOP(=O)(O)Cc1ccc2cc(C)ccc2n1 [Compound 2]
Permeability Caco-2 [1]: + | detection within the cytoplasm [1]: detected within the cytoplasm | Permeability HEK293 [2]: 0^b | binding to amphiphysin I (Seq. ID No. 7) [10]: found to bind; also recorded: bind specifically | binding to BiP (Seq. ID No. 5) [11]: found to bind; also recorded: bind specifically | solubility [5]: > 10 mM | Permeability LNCaP [6]: + | detection within the cytoplasm [6]: detected within the cytoplasm | adsorption in carcinoma cell line Caco-2 [7]: adsorbed | Adsorption Caco-2 [7]: ++ (++ = 21-40%) | adsorption in carcinoma cell line LNCaP [8]: adsorbed | Adsorption LNCaP [8]: ++ (++ = 21-40%) | adsorption in normal cells (HEK293) [9]: not adsorbed | Adsorption HEK293 [9]: 0 (0 = 0-10%)

CCCCOP(=O)(O)Cc1c(C)c(CP(=O)(O)OCCCC)c(C)c(CP(=O)(O)OCCCC)c1C [Compound 12, [3,5-Bis-(Butoxy-hydroxy-phosphorylmethyl)-2,4,6-trimethyl-benzyl]-phosphonic acid monobutyl ester]
Permeability Caco-2 [1]: + | detection within the cytoplasm [1]: detected within the cytoplasm | Permeability HEK293 [2]: 0 | binding to keratin 18 (Seq. ID No. 9) [3]: found to bind; also recorded: bind specifically | binding to cytokeratin 8 (Seq. ID No. 10) [4]: found to bind; also recorded: bind specifically | solubility [5]: > 10 mM | Permeability LNCaP [6]: + | detection within the cytoplasm [6]: detected within the cytoplasm | adsorption in carcinoma cell line Caco-2 [7]: adsorbed | Adsorption Caco-2 [7]: ++++ (++++ = >60%) | adsorption in carcinoma cell line LNCaP [8]: adsorbed | Adsorption LNCaP [8]: +++ (+++ = 41-60%) | adsorption in normal cells (HEK293) [9]: not adsorbed | Adsorption HEK293 [9]: 0 (0 = 0-10%)
